The source of these data is ChEMBL document CHEMBL1137107, “Design, synthesis, and evaluation of hexahydrobenz[f]isoquinolines as a novel class of dopamine 3 receptor ligands” (Bioorg Med Chem Lett, 2004).

In one assay the target is D(3) dopamine receptor (Rattus norvegicus, UniProt P19020).
A short description of assay [1]: Binding affinity towards D1-like dopamine receptor in caudate-putamen membranes of sprague-dawley rat brain by using [3H]-SCH- 23390 as radioligand. The assay is classed as cell membranes, Membrane.
For assay [2], the species on record is Rattus norvegicus. The assay can be described thus: Ratio of binding affinity for D1-like receptor to that of dopamine D3 receptor.
Assay [3] is filed under the species Rattus norvegicus. In words: Ratio of binding affinity for D2-like receptor to that of dopamine D3 receptor.
A short description of assay [4]: Binding affinity towards D2-like dopamine receptor in caudate-putamen membranes of sprague-dawley rat brain by using [3H]spiperone as radioligand. It counts as cell membranes, Membrane.

Chain of D(3) dopamine receptor (P19020 whole entry): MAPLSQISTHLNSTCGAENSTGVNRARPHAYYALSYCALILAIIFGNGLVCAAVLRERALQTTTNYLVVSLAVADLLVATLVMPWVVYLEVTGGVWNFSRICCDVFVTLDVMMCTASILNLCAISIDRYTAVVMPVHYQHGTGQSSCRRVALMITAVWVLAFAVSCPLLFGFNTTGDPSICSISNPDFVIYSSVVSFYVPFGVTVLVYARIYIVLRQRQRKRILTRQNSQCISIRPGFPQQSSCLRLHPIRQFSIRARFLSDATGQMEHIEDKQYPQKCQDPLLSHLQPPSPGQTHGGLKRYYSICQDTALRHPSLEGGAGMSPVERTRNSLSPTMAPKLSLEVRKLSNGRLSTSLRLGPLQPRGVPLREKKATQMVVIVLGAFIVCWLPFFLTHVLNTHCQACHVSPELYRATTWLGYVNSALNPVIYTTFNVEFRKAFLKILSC
Description for D(3) dopamine receptor: Binding affinity towards dopamine D3 receptor in ventral striatal membranes of sprague-dawley rat brain by using [3H]-PD 128907 as radioligand

As a reminder, the Ki is the dissociation constant of the complex between target and ligand, obtained from inhibition or displacement. For `O=C(NCCCCN1CCC2=C(CCc3ccccc32)C1)c1ccc2ccccc2c1`, the values for the Ki (at D(3) dopamine receptor; in assay [1]; in assay [4]) were 6.1 nM, 993 nM and 811 nM, respectively. For the same molecule, the Selectivity in the assay listed under Rattus norvegicus [2] worked out at 163; in the assay filed under Rattus norvegicus [3], 133.

Regarding `CCCCCN1CCC2=C(CCc3ccccc32)C1`, the figures for the Ki (on D(3) dopamine receptor; in assay [1]; in assay [4]) were 38 nM, 1060 nM and 46 nM, respectively. Moreover, the Selectivity is 28 in the assay filed under Rattus norvegicus [2] and 1 in the assay listed under Rattus norvegicus [3].

On to `COc1ccccc1N1CCN(CCCCNC(=O)c2ccc3ccccc3c2)CC1` [BP-897], for which the Ki in assay [1] was 636 nM; in assay [4] it was 162 nM.

Take `c1ccc(CCCN2CCC3=C(CCc4ccccc43)C2)cc1`: the affinity on D(3) dopamine receptor, expressed as Ki, was 103 nM.

With `c1ccc(CCN2CCC3=C(CCc4ccccc43)C2)cc1`, the values for the Ki (on D(3) dopamine receptor; in assay [1]; in assay [4]) were 84 nM, 819 nM and 3290 nM, respectively. Also, the Selectivity is 10 in the assay listed under Rattus norvegicus [2] and 39 in the assay filed under Rattus norvegicus [3].

`CCCCN1CCC2=C(CCc3ccccc32)C1`: the Ki worked out at 25 nM at D(3) dopamine receptor, 1570 nM in assay [1] and 122 nM in assay [4]. The Selectivity in the assay filed under Rattus norvegicus [2] was determined as 62; in the assay listed under Rattus norvegicus [3] it was 5.

As for `c1ccc(CCCCN2CCC3=C(CCc4ccccc43)C2)cc1`, the Ki on D(3) dopamine receptor is 74 nM; in assay [1], 696 nM; in assay [4], 59 nM. Besides, the values for the Selectivity in the assay filed under Rattus norvegicus [2] and in the assay filed under Rattus norvegicus [3] were 9 and 1, respectively.

With `CCCN1CCC2=C(CCc3ccccc32)C1`, the Ki was determined as 63 nM on D(3) dopamine receptor, 1120 nM in assay [1] and 84 nM in assay [4]. Also, the Selectivity is 18 in the assay listed under Rattus norvegicus [2] and 1 in the assay filed under Rattus norvegicus [3].

Turning to `CCN1CCC2=C(CCc3ccccc32)C1`, the Ki on D(3) dopamine receptor stood at 183 nM.
